Target: T1, nucleotide-binding domain of heat shock protein 70 (NBD/HSP70) (Homo sapiens, UniProt P0DMV8)
T1 construct: gene HSPA1A
Experiment: intrinsic Trp90 fluorescence quenching titration (steady-state, IDF/Hill fit), supported by time-resolved fluorescence; CD
Conditions: read-out: intrinsic Trp90 fluorescence quenching titration (steady-state, IDF/Hill fit), s

T1 sequence (P0DMV8 1-382 limits assumed): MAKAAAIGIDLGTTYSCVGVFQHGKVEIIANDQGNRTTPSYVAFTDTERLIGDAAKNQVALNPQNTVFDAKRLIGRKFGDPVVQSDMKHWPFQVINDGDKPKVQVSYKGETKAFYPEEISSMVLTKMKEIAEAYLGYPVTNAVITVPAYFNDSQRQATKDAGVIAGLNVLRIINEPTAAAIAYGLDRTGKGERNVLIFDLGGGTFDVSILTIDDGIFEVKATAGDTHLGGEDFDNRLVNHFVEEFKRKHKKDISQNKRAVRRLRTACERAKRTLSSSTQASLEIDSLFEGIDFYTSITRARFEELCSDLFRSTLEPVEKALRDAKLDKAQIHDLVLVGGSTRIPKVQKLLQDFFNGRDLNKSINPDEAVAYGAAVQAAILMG

With COc1cc(/C=C/C(=O)N2CCC=CC2=O)cc(OC)c1OC [PPL, Piperlongumine] as the compound, how does the Kd read?
Its Kd is 15.9 µM.
